Like-named read-outs stand apart in the source and are kept apart here.

Data set [1] relates to SH-SY5Y cells. In words: AK (adenylate kinase) release ToxiLight cytotoxicity assay. Also: reference of the scale not given here.
Data set [2] relates to endogenous TFE3. Description: TFE3 nuclear translocation, immunocytochemistry high-content imaging. The class given is cell-based.
Data set [3] relates to SH-SY5Y cells. In words: Nuclear count from microscopy images (cellular growth and toxicity). Also: reference of the scale not given here.
In data set [4] the test system is endogenous TFEB. In words: TFEB nuclear translocation, immunocytochemistry high-content imaging. Type of data set: cell-based.
Data set [5] has as its system SH-SY5Y cells.
Source text: The PKIS2 Library was supplied by The Structural Genomics Consortium at the University of North Carolina at Chapel Hill.
Where [6] appears, read: PKIS2 primary screening, DQ Red BSA intensity.
[7] abbreviates: PKIS2 primary screening, DQ Red BSA spot count.
Setting [8] is: PKIS2 primary screen, DQ Red BSA intensity.
Where [9] appears, read: PKIS2 primary screen, DQ Red BSA spot count.
For DQ Intensity in this document: reference of the scale not given here.
For DQ Spot in this document: reference of the scale not given here.

As to `Cl.Fc1ccccc1COc1ccc(Nc2ncnc3ccc(-c4nnc(C(F)(F)F)o4)cc23)cc1Cl` [UNC10225422A], the AK in data set [1] (PKIS2 primary screening) is 104.09. Besides, in data set [2] (PKIS2 primary screening), the TFE3 % turned out to be 5.47%. For the same molecule, in data set [3] (PKIS2 primary screening), the “Nuclear Count” value is 121.67. The molecule also returned a TFEB % in data set [4] (PKIS2 primary screening) of 3.54%. In addition, the “DQ Intensity” value in data set [5] (setting [6]) turned out to be 100.75. Also, in data set [5] (setting [7]), the “DQ Spot” value amounted to 98.62.
In the case of `CC(C(=O)NC1CCN(c2ccnc(Nc3ccc(F)cc3)n2)C1)c1ccc(Cl)cc1` (stereo not drawn) [GSK1379713], in data set [1] (PKIS2 primary screening), the AK is 94.01. Moreover, the TFE3 % in data set [2] (PKIS2 primary screening) is on record as 10.33%. Besides, in data set [3] (PKIS2 primary screening), the “Nuclear Count” value stood at 84.41. For the same molecule, the TFEB % in data set [4] (PKIS2 primary screening) turned out to be 6.54%. For the same molecule, the “DQ Intensity” value in data set [5] (setting [6]) was found to be 153.18. For the same molecule, the “DQ Spot” value in data set [5] (setting [7]) is recorded as 124.60.
For the molecule `Nc1ncnc2occ(-c3ccc4c(c3)CCN4C(=O)Cc3cc(F)ccc3F)c12` [UNC10225000A], the AK in data set [1] (PKIS2 primary screening) came out at 111.48. The molecule also came in with a TFE3 % in data set [2] (PKIS2 primary screening) of 4.51%. In addition, the “Nuclear Count” value in data set [3] (PKIS2 primary screening) is given as 124.09. Moreover, the TFEB % in data set [4] (PKIS2 primary screening) came out at 2.84%. Further, in data set [5] (setting [6]), the “DQ Intensity” value is 134.29. For the same molecule, in data set [5] (setting [7]), the “DQ Spot” value is 108.59.
The molecule `CCN(CC)CCOc1ccc(Nc2ncc3cc(-c4c(Cl)cccc4Cl)c(=O)n(C)c3n2)cc1` [UNC10225459A] yielded an AK in data set [1] (PKIS2 primary screen) of 131.29. The TFE3 % in data set [2] (PKIS2 primary screen) is 18.27%. Moreover, in data set [3] (PKIS2 primary screen), the “Nuclear Count” value amounted to 26.96. This molecule registered a TFEB % in data set [4] (PKIS2 primary screen) of 22.54%. In data set [5] (setting [8]), the “DQ Intensity” value stood at 115.72. The “DQ Spot” value in data set [5] (setting [9]) stood at 64.83.
For the molecule `CSc1ccc(-c2nc3n(c2-c2ccncc2)CCC3)cc1` [UNC10225486A], the AK in data set [1] (PKIS2 primary screening) turned out to be 80.57. Besides, the TFE3 % in data set [2] (PKIS2 primary screening) is given as 13.99%. Besides, the “Nuclear Count” value in data set [3] (PKIS2 primary screening) is on record as 91.88. Besides, in data set [4] (PKIS2 primary screening), the TFEB % is on record as 5.52%. Further, the “DQ Intensity” value in data set [5] (setting [6]) came to 119.41. For the same molecule, the “DQ Spot” value in data set [5] (setting [7]) worked out at 102.53.
In turn, `FC(F)(F)c1ccc(-c2cc(-c3c[nH]nc3-c3ccccn3)ccn2)cc1` [UNC10225241A] returned an AK in data set [1] (PKIS2 primary screening) of 109.99. The molecule also showed a TFE3 % in data set [2] (PKIS2 primary screening) of 6.11%. Also, the “Nuclear Count” value in data set [3] (PKIS2 primary screening) was 106.44. Further, in data set [4] (PKIS2 primary screening), the TFEB % was 3.57%. The “DQ Intensity” value in data set [5] (setting [6]) is 101.49. The “DQ Spot” value in data set [5] (setting [7]) came to 108.48.
`Nc1nccc2scc(-c3ccc4c(c3)CCN4C(=O)Cc3cc(F)ccc3F)c12` [UNC10225494A]: the AK in data set [1] (PKIS2 primary screening) is on record as 74.58. The molecule also gave a TFE3 % in data set [2] (PKIS2 primary screening) of 17.46%. For the same molecule, in data set [3] (PKIS2 primary screening), the “Nuclear Count” value was 97.20. The molecule also registered a TFEB % in data set [4] (PKIS2 primary screening) of 3.18%. The “DQ Intensity” value in data set [5] (setting [6]) is reported as 123.47. Moreover, the “DQ Spot” value in data set [5] (setting [7]) is reported as 108.12.
On to `O=c1cc(N2CCOCC2)nc2n(Cc3cccc(Cl)c3Cl)c3ccccc3n12` [UNC10225136A], for which, in data set [1] (PKIS2 primary screening), the AK was determined as 86.64. Also, the TFE3 % in data set [2] (PKIS2 primary screening) is reported as 23.04%. Besides, the “Nuclear Count” value in data set [3] (PKIS2 primary screening) is listed as 90.29. The molecule also yielded a TFEB % in data set [4] (PKIS2 primary screening) of 3.50%. For the same molecule, in data set [5] (PKIS2 primary screening), the “DQ Intensity” value was found to be 100.81 and the “DQ Spot” value came out at 121.13.
`O=C(NCc1cccs1)c1cc(C(=O)c2c(Cl)cccc2Cl)c[nH]1` [UNC10225502A] registered an AK in data set [1] (PKIS2 primary screen) of 136.34. This molecule also returned a TFE3 % in data set [2] (PKIS2 primary screen) of 7.89%. Further, the “Nuclear Count” value in data set [3] (PKIS2 primary screen) came out at 105.30. This molecule also gave a TFEB % in data set [4] (PKIS2 primary screen) of 6.92%. The “DQ Intensity” value in data set [5] (setting [8]) is given as 112.22. In data set [5] (setting [9]), the “DQ Spot” value is given as 106.20.
In turn, `Cl.Cl.c1ccc(-c2cc3ccncc3cc2OC2CCNCC2)cc1` [UNC10225463A] gave an AK in data set [1] (PKIS2 primary screening) of 97.09. In addition, the TFE3 % in data set [2] (PKIS2 primary screening) is given as 49.72%. Besides, the “Nuclear Count” value in data set [3] (PKIS2 primary screening) is 112.69. The molecule further registered a TFEB % in data set [4] (PKIS2 primary screening) of 5.07%. Further, in data set [5] (PKIS2 primary screening), the “DQ Intensity” value is 117.87 and the “DQ Spot” value came out at 77.04.
In turn, `COc1cc(Nc2nccc(-c3c(-c4cccc(NC(=O)c5c(F)cccc5F)c4)nn4ccccc34)n2)cc(OC)c1OC` [UNC10225318A] registered an AK in data set [1] (PKIS2 primary screening) of 96.57. The molecule further returned a TFE3 % in data set [2] (PKIS2 primary screening) of 5.80%. Also, in data set [3] (PKIS2 primary screening), the “Nuclear Count” value amounted to 94.38. Further, in data set [4] (PKIS2 primary screening), the TFEB % is 6.03%. In data set [5] (PKIS2 primary screening), the “DQ Intensity” value is reported as 105.65 and the “DQ Spot” value is recorded as 109.19.
Molecule `Cc1ccc(C)c(NC(=O)NC2CCN(c3ccnc(Nc4ccc(F)cc4)n3)C2)c1` (stereo not drawn) [GSK1379720] showed an AK in data set [1] (PKIS2 primary screening) of 98.80. In data set [2] (PKIS2 primary screening), the TFE3 % was found to be 10.49%. Also, the “Nuclear Count” value in data set [3] (PKIS2 primary screening) stood at 92.38. This molecule showed a TFEB % in data set [4] (PKIS2 primary screening) of 6.06%. In addition, in data set [5] (setting [6]), the “DQ Intensity” value was 115.10. The “DQ Spot” value in data set [5] (setting [7]) stood at 109.75.
Molecule `Cl.NS(=O)(=O)c1cccc(Nc2cc(-c3ccc(F)cc3)n[nH]2)c1` [UNC10112764A] showed an AK in data set [1] (PKIS2 primary screening) of 125.30. For the same molecule, the TFE3 % in data set [2] (PKIS2 primary screening) is 14.81%. For the same molecule, the “Nuclear Count” value in data set [3] (PKIS2 primary screening) worked out at 80.49. In addition, the TFEB % in data set [4] (PKIS2 primary screening) is 1.30%. For the same molecule, the “DQ Intensity” value in data set [5] (setting [6]) was determined as 118.54. Also, the “DQ Spot” value in data set [5] (setting [7]) was 103.52.
With `CCOc1nccc(-c2c(-c3ccc(F)cc3)ncn2C2CCNCC2)n1` [UNC10225194A], the AK in data set [1] (PKIS2 primary screening) came to 122.01. In data set [2] (PKIS2 primary screening), the TFE3 % came to 13.41%. In addition, the “Nuclear Count” value in data set [3] (PKIS2 primary screening) was 127.90. In data set [4] (PKIS2 primary screening), this molecule came in with a TFEB % of 5.88%. Besides, in data set [5] (PKIS2 primary screening), the “DQ Intensity” value came to 81.72 and the “DQ Spot” value was 85.28.
For `Nc1nc(-c2ccc3c(N)n[nH]c3c2)cc(N2CCCC(NC(=O)c3ccccc3)C2)n1` (stereo not drawn) [GSK2286775], the AK in data set [1] (PKIS2 primary screening) is recorded as 119.49. For the same molecule, the TFE3 % in data set [2] (PKIS2 primary screening) was 13.75%. The “Nuclear Count” value in data set [3] (PKIS2 primary screening) amounted to 104.24. In data set [4] (PKIS2 primary screening), the TFEB % is 4.25%. For the same molecule, the “DQ Intensity” value in data set [5] (setting [6]) was found to be 67.10. In data set [5] (setting [7]), the “DQ Spot” value is recorded as 83.48.
In data set [1] (PKIS2 primary screening), `COc1ccc(CNC(=O)NC2CCN(c3ccnc(Nc4ccc(F)cc4)n3)C2)cc1` (stereo not drawn) [GSK1379706] came in with an AK of 89.40. In data set [2] (PKIS2 primary screening), the TFE3 % worked out at 11.64%. The “Nuclear Count” value in data set [3] (PKIS2 primary screening) was found to be 119.74. In data set [4] (PKIS2 primary screening), this molecule gave a TFEB % of 2.94%. In addition, the “DQ Intensity” value in data set [5] (setting [6]) is listed as 67.21. Further, the “DQ Spot” value in data set [5] (setting [7]) is given as 81.58.
As to `COc1ccc(-n2cnc3c(N)ncnc32)cc1` [UNC10225413A], in data set [1] (PKIS2 primary screening), the AK amounted to 68.21. In data set [2] (PKIS2 primary screening), this molecule gave a TFE3 % of 13.51%. For the same molecule, the “Nuclear Count” value in data set [3] (PKIS2 primary screening) is reported as 102.02. Further, the TFEB % in data set [4] (PKIS2 primary screening) was 5.09%. In addition, in data set [5] (PKIS2 primary screening), the “DQ Intensity” value came out at 106.51 and the “DQ Spot” value is 108.81.
`Fc1ccc(-c2ncn(CCCN3CCOCC3)c2-c2ccccn2)cc1` [UNC10225382A]: the AK in data set [1] (PKIS2 primary screening) came to 83.54. This molecule also had a TFE3 % in data set [2] (PKIS2 primary screening) of 18.86%. Moreover, the “Nuclear Count” value in data set [3] (PKIS2 primary screening) was determined as 93.57. Also, the TFEB % in data set [4] (PKIS2 primary screening) amounted to 3.28%. The “DQ Intensity” value in data set [5] (setting [6]) is listed as 121.86. Besides, the “DQ Spot” value in data set [5] (setting [7]) is listed as 115.12.
The molecule `CCCc1ccc(S(=O)(=O)NC2CCN(c3ccnc(Nc4ccc(OC)cc4)n3)C2)cc1` (stereo not drawn) [GSK1379737] yielded an AK in data set [1] (PKIS2 primary screening) of 106.07. Besides, the TFE3 % in data set [2] (PKIS2 primary screening) is reported as 12.75%. In data set [3] (PKIS2 primary screening), the “Nuclear Count” value turned out to be 116.08. In data set [4] (PKIS2 primary screening), this molecule came in with a TFEB % of 5.95%. Moreover, in data set [5] (setting [6]), the “DQ Intensity” value is on record as 83.70. Besides, the “DQ Spot” value in data set [5] (setting [7]) is on record as 93.35.
With `O=c1cc(N2CCOCC2)nc2n(Cc3ccc(F)c(Cl)c3)ccn12` [UNC10225343A], the AK in data set [1] (PKIS2 primary screening) came out at 80.61. For the same molecule, the TFE3 % in data set [2] (PKIS2 primary screening) came to 7.68%. Moreover, in data set [3] (PKIS2 primary screening), the “Nuclear Count” value stood at 115.81. Also, the TFEB % in data set [4] (PKIS2 primary screening) came out at 4.66%. In data set [5] (PKIS2 primary screening), the “DQ Intensity” value stood at 102.25 and the “DQ Spot” value was found to be 107.68.
